Experimental data taken from US20250222119A1, “ENGINEERING OF MULTIFUNCTIONAL PEPTIDES FOR CONTROLLED DRUG DELIVERY” (The Johns Hopkins University, priority 2022, published 2025).

Legend:
[1] = tested on: normotensive Dutch Belted rabbits; assay: Rabbit IOP measurements after intracameral injection or topical dosing; assay type: in vivo; conditions: single intracameral injection
Description: For the ICM injection procedure, rabbits were anesthetized with ketamine/xylazine and received topical anesthesia with 0.5% proparacaine hydrochloride. […] After the procedure, topical bacitracin-neomycin-polymyxin ophthalmic ointment was applied to both eyes to prevent infection and dry eyes. […] The IOP were measured immediately before the topical dosing (0 h), and at 2, 4, 6 and 8 h after the eyedrop administration.

[2] = tested on: ARPE-19 cells; assay: Cell-penetration assay with biotinylated peptides in induced and non-induced ARPE-19 cells; assay type: cell-based; conditions: C-terminal biotinylated peptide 100 μM, 6 h, 37° C.
Description: Four 96 well plates per group were seeded at 0.01×10^6 cells/well. ARPE-19 cells were either cultured with DMEM:F12 medium containing 10% FBS according to protocol provided by the vendor (non-induced) or cultured in DMEM high glucose, pyruvate media with […] of ferric ammonium citrate (Wolkow, N. et al., Exp Eye Res 128, 92-101, (2014)) for 2 months (induced) (Kim, Y. C. et al. Drug Deliv Transl Res, doi:10.1007/s13346-021-00987-6 (2021)). The expression of melanin was confirmed visually with bright field microscopy and by measuring absorbance at 475 nm (>0.4 a.u., not shown). Within each plate, 12 wells were randomly selected to quantify the cell numbers with an automated cell counter (Countess 3 Automated Cell Counter, Thermo Fisher) for normalization in the cell uptake study. Next, 100 μL (100 μM in pH 6.5 PBS) of each of the 127 C-terminal biotinylated peptides was added to n=3 wells for both the induced and non-induced ARPE-19 cells for 6 h at 37° C. The cells were then washed thoroughly 5 times with PBS solution to remove extracellular peptide. To quantify cell-associated peptides, the cells were lysed with 100 μL of RIPA lysis buffer at 4 C for 48 h. […] The mean intracellular concentration values were grouped by cell types (induced or non-induced), and the two-sample Wilcoxon test (Mann-Whitney) was calculated using the R function wilcox.test. Intracellular concentration values were also plotted against experimental melanin binding and the relationship was quantified using a simple linear model and its corresponding R^2.
It was next characterized how the predicted cell-penetrating properties of the peptides affected cell uptake in a retinal pigment epithelium (RPE) cell line (ARPE-19). ARPE-19 cells were cultured using standard methods (non-induced, n=3) and using culture conditions that induce melanin production (induced, n=3) (Kim, Y. C. et al., Drug Deliv Transl Res, doi:10.1007/s13346-021-00987-6 (2021)).

Row | Compound | time for the average ΔIOP to return to baseline [1] [days] | peak reduction in IOP from baseline (ΔIOP) ([1]; at 2 days, n=5) [mmHg] | cell uptake (intracellular peptide concentration) ([2]; non-induced ARPE-19 cells) [pmol/100K cells] | cell uptake (intracellular peptide concentration) ([2]; induced (melanin-producing) ARPE-19 cells) [pmol/100K cells]
1 | Brc1c(NC2=NCCN2)ccc2nccnc12 [brimonidine] | 8 | −2.6±1.65 | – | –
2 | FSGKRRKRKPR [HR97] | – | – | 82.5±15.8 | –
3 | YGRKKRRQRRR [TAT47-57] | – | – | 58.7±7.43 | 478±20.8
